Experiment [1] has as its system 621-102 (TSC2-deficient). Description: relative viability vs DMSO; higher = less cytotoxic. Conditions: serum: 10% FBS, 72 h.
Experiment [2] has as its system 621-103 (TSC2-rescued). The description is as above. As to conditions: serum: 10% FBS, 72 h.

This note sets out measurements from the supplement of paper PMC8960247.

Structures are written as SMILES. ± gives the standard error.
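Also: immortalized renal angiomyolipoma cells stably carrying empty vector or TSC2, dosed in 384-well plates in DMEM, viability normalized to vehicle-treated wells within each plate.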

Regarding `c1ccc2c(CCNc3ccc(Nc4ccncc4)cc3)c[nH]c2c1`, the relative viability amounted to 131 ± 2% in experiment [1] (0.0001 µM); 122 ± 2.9% in experiment [1] (0.001 µM); 119.8 ± 0.41% in experiment [1] (0.01 µM); 114 ± 1.4% in experiment [1] (0.1 µM); 110 ± 6.2% in experiment [1] (1 µM); 68.7 ± 4.9% in experiment [1] (10 µM). Also, the relative viability in experiment [2] (0.0001 µM) was found to be 113.5 ± 1%; in experiment [2] (0.001 µM) it was 103 ± 1.1%; in experiment [2] (0.01 µM), 103 ± 1.1%; in experiment [2] (0.1 µM), 106 ± 1.8%; in experiment [2] (1 µM) it was 105 ± 2%; in experiment [2] (10 µM) it was 64.7 ± 3.8%.

With `O=C1NC(=O)/C(=C/c2ccc3nccc(-c4ccncc4)c3c2)S1`, the relative viability in experiment [1] (0.0001 µM) was determined as 101 ± 3.6%; in experiment [1] (0.001 µM), 106.8 ± 0.82%; in experiment [1] (0.01 µM) it was 105 ± 5.2%; in experiment [1] (0.1 µM), 97.8 ± 5.1%; in experiment [1] (1 µM), 80.5 ± 5%; in experiment [1] (10 µM) it was 32.8 ± 1.8%. In addition, the relative viability in experiment [2] (0.0001 µM) was 94.69 ± 0.22%; in experiment [2] (0.001 µM), 101.8 ± 0.76%; in experiment [2] (0.01 µM), 107 ± 2%; in experiment [2] (0.1 µM), 101.5 ± 0.46%; in experiment [2] (1 µM), 93.69 ± 0.33%; in experiment [2] (10 µM), 33.1 ± 0.64%.

As to `Nc1[nH]cnc2ncnc1-2` [Adenine], the relative viability in experiment [1] (0.0001 µM) turned out to be 98 ± 4%; in experiment [1] (0.001 µM), 96.5 ± 2.6%; in experiment [1] (0.01 µM) it was 100 ± 3%; in experiment [1] (0.1 µM), 97.9 ± 2.6%; in experiment [1] (1 µM) it was 101 ± 2.1%; in experiment [1] (10 µM), 112.7 ± 0.18%. In addition, the relative viability came to 101 ± 3.9% in experiment [2] (0.0001 µM); 98.5 ± 4.1% in experiment [2] (0.001 µM); 101 ± 1.6% in experiment [2] (0.01 µM); 97.3 ± 1.1% in experiment [2] (0.1 µM); 104.9 ± 0.9% in experiment [2] (1 µM); 117 ± 1.5% in experiment [2] (10 µM).

For `COC(=O)C1=C(C)NC(C)=C(C(=O)OCCN2CCN(C(c3ccccc3)c3ccccc3)CC2)C1c1cccc([N+](=O)[O-])c1` (stereo not given) [Manidipine], the relative viability in experiment [1] (0.0001 µM) worked out at 101 ± 4%; in experiment [1] (0.001 µM), 102 ± 1.7%; in experiment [1] (0.01 µM), 99.9 ± 1.5%; in experiment [1] (0.1 µM) it was 97.7 ± 1.7%; in experiment [1] (1 µM), 93.8 ± 1.4%; in experiment [1] (10 µM) it was 96.95 ± 0.61%. The relative viability in experiment [2] (0.0001 µM) was 109 ± 3.1%; in experiment [2] (0.001 µM), 108 ± 2.9%; in experiment [2] (0.01 µM) it was 106 ± 2%; in experiment [2] (0.1 µM), 108 ± 2.5%; in experiment [2] (1 µM), 103 ± 2.2%; in experiment [2] (10 µM), 101 ± 6.2%.

In the case of `Cc1ccc(NC(=O)c2cccc(N(C)C)c2)cc1NC(=O)c1ccc(O)cc1`, the relative viability in experiment [1] (0.0001 µM) turned out to be 90.2 ± 2%; in experiment [1] (0.001 µM) it was 102 ± 2.6%; in experiment [1] (0.01 µM), 100.2 ± 0.28%; in experiment [1] (0.1 µM) it was 109 ± 5%; in experiment [1] (1 µM), 109 ± 5.4%; in experiment [1] (10 µM) it was 92.1 ± 6%. Moreover, the relative viability in experiment [2] (0.0001 µM) is 104.9 ± 0.89%; in experiment [2] (0.001 µM) it was 102 ± 4%; in experiment [2] (0.01 µM), 101 ± 3.8%; in experiment [2] (0.1 µM) it was 101 ± 4.5%; in experiment [2] (1 µM), 94.6 ± 5%; in experiment [2] (10 µM), 98.9 ± 1.4%.

For `Cc1c(C(=O)Nc2ccc(N3C[C@@H](C)O[C@@H](C)C3)nc2)cccc1-c1ccc(OC(F)(F)F)cc1` [LDE225], the relative viability in experiment [1] (0.0001 µM) turned out to be 91.8 ± 6.5%; in experiment [1] (0.001 µM) it was 106 ± 2.3%; in experiment [1] (0.01 µM) it was 116 ± 3.8%; in experiment [1] (0.1 µM), 120 ± 0.74%; in experiment [1] (1 µM) it was 115 ± 5.7%; in experiment [1] (10 µM), 81.9 ± 9.2%. Moreover, the relative viability was 92.8 ± 2.8% in experiment [2] (0.0001 µM); 113 ± 7.7% in experiment [2] (0.001 µM); 112 ± 2.8% in experiment [2] (0.01 µM); 115.8 ± 0.72% in experiment [2] (0.1 µM); 116 ± 6.1% in experiment [2] (1 µM); 54.6 ± 1.5% in experiment [2] (10 µM).

Consider `CC(=O)O[C@H]1CC[C@@]2(C)C(=CC[C@@H]3[C@@H]2CC[C@]2(C)C(c4cccnc4)=CC[C@@H]32)C1` [Abiraterone Acetate (CB7630)], for which the relative viability in experiment [1] (0.0001 µM) came out at 103 ± 1.5%; in experiment [1] (0.001 µM) it was 108 ± 7%; in experiment [1] (0.01 µM) it was 102 ± 0.7%; in experiment [1] (0.1 µM), 97.3 ± 2.7%; in experiment [1] (1 µM), 103 ± 1.2%; in experiment [1] (10 µM), 94.6 ± 2.4%. The relative viability was 106 ± 5.8% in experiment [2] (0.0001 µM); 104 ± 3.1% in experiment [2] (0.001 µM); 111 ± 2.3% in experiment [2] (0.01 µM); 111 ± 5.3% in experiment [2] (0.1 µM); 105 ± 2% in experiment [2] (1 µM); 102 ± 3.2% in experiment [2] (10 µM).

Turning to `COc1ccc(-c2ccc3c(N4CCOC[C@@H]4C)nc(N4CCOC[C@@H]4C)nc3n2)cc1CO` [AZD8055], the relative viability in experiment [1] (0.0001 µM) was determined as 80 ± 3.1%; in experiment [1] (0.001 µM) it was 86.2 ± 2.7%; in experiment [1] (0.01 µM), 66.51 ± 0.58%; in experiment [1] (0.1 µM) it was 39.8 ± 0.67%; in experiment [1] (1 µM) it was 21.4 ± 2.2%; in experiment [1] (10 µM), 19 ± 0.54%. Besides, the relative viability in experiment [2] (0.0001 µM) was 90.4 ± 3.3%; in experiment [2] (0.001 µM) it was 81.1 ± 4.3%; in experiment [2] (0.01 µM), 69 ± 0.95%; in experiment [2] (0.1 µM), 48.4 ± 0.71%; in experiment [2] (1 µM), 34.6 ± 0.72%; in experiment [2] (10 µM), 34.3 ± 1.4%.

For `Cc1ccccc1-n1c(Cn2ncc3c(N)ncnc32)nc2cccc(C)c2c1=O` [PIK-293], the relative viability in experiment [1] (0.0001 µM) amounted to 75.5 ± 1.2%; in experiment [1] (0.001 µM), 114 ± 4.8%; in experiment [1] (0.01 µM), 108 ± 1.3%; in experiment [1] (0.1 µM) it was 118.8 ± 0.73%; in experiment [1] (1 µM) it was 111.4 ± 0.27%; in experiment [1] (10 µM) it was 108 ± 5.3%. For the same molecule, the relative viability in experiment [2] (0.0001 µM) came to 99.57 ± 0.92%; in experiment [2] (0.001 µM), 99.6 ± 1.1%; in experiment [2] (0.01 µM), 98.74 ± 0.94%; in experiment [2] (0.1 µM), 98.35 ± 0.28%; in experiment [2] (1 µM), 98.9 ± 1.9%; in experiment [2] (10 µM) it was 94.1 ± 1.5%.

`COc1cc2c(Nc3ccc(NC(=O)c4ccccc4)cc3)ncnc2cc1OCCCN1CCOCC1`: the relative viability in experiment [1] (0.0001 µM) turned out to be 97.1 ± 1.7%; in experiment [1] (0.001 µM) it was 91.95 ± 0.3%; in experiment [1] (0.01 µM), 108 ± 2%; in experiment [1] (0.1 µM), 90.2 ± 5.2%; in experiment [1] (1 µM), 79.6 ± 3.6%; in experiment [1] (10 µM), 7.78 ± 0.95%. Moreover, the relative viability in experiment [2] (0.0001 µM) was determined as 104 ± 1.1%; in experiment [2] (0.001 µM), 111 ± 4.9%; in experiment [2] (0.01 µM), 104 ± 1.9%; in experiment [2] (0.1 µM), 105 ± 1.6%; in experiment [2] (1 µM), 95.8 ± 2.5%; in experiment [2] (10 µM), 12.4 ± 0.25%.
